According to patent US7678791B2, “Nitroheteroaryl-containing rifamycin derivatives” (Cumbre IP Ventures, L.P., priority 2006, dated 2010):
In brackets after ≈: the same amount, converted by molar mass. Read-outs that look alike come from different tables or passages of the source.

How the values were obtained:
Assay type in all cases: cell-based
[1] = system: Helicobacter pylori CB1572 (Rif-resistant, rpoB L525I, D530N); test: microbe, parasite or virus in culture; settings: read-out: MIC H. pylori CB1572 (Rif-resistant)
Source text: (§1) Methods for dilution antimicrobial susceptibility tests for bacteria that grow aerobically, 5th ed. M7-A5. National Committee for Clinical Laboratory Standards, Wayne, Pa.).

[2] = system: Staphylococcus aureus ATCC 29213; test: MIC by microbroth dilution, S. aureus
Source text: as §1

[3] = system: Escherichia coli ATCC 25922; test: MIC by microbroth dilution, E. coli
Source text: as §1

[4] = system: Helicobacter pylori ATCC 700392; test: MIC by agar dilution, H. pylori
Source text: as §1

[5] = system: Haemophilus influenzae ATCC 10211; test: MIC by microbroth dilution, H. influenzae
Source text: as §1

[6] = system: Bacteroides fragilis CB-1621; test: MIC, B. fragilis; settings: CB1621
[7] = system: Mycobacterium tuberculosis H37Rv; test: MIC, M. tuberculosis
[8] = system: Clostridium difficile CB-1620; test: MIC, C. difficile; settings: Clostridioides difficile, CB1620
[9] = ATCC29213, read-out: MIC S. aureus ATCC# 29213
[10] = ATCC25922, read-out: MIC E. coli ATCC# 25922
[11] = ATCC700392, read-out: MIC H. pylori ATCC# 700392

Compound	MIC [1] [µg/mL]	MIC [2, 9] [µg/mL]	MIC [3, 10] [µg/mL]	MIC [4, 11] [µg/mL]	MIC ([5]; ATCC10211, read-out: MIC H. influenzae ATCC# 10211) [µg/mL]	MIC [6] [µg/mL]	MIC [7] [µg/mL]	MIC [8] [µg/mL]	MIC ([5]; ATCC10211, microbroth dilution, read-out: MIC H. influenzae ATCC# 10211) [µg/mL]	MIC ([2]; ATCC29213, microbroth dilution, read-out: MIC S. aureus ATCC# 29213) [µg/mL]	MIC ([3]; ATCC25922, microbroth dilution, read-out: MIC E. coli ATCC# 25922) [µg/mL]	MIC ([4]; ATCC700392, agar dilution, read-out: MIC H. pylori ATCC# 700392) [µg/mL]
CO[C@H]1/C=C/O[C@@]2(C)Oc3c(C)c(O)c4c(=O)c(c5oc6cc(N7CCN(CCn8c([N+](=O)[O-])cnc8C)CC7)cc(O)c6nc-5c4c3C2=O)NC(=O)/C(C)=C\C=C\[C@H](C)[C@H](O)[C@@H](C)[C@@H](O)[C@@H](C)[C@H](OC(C)=O)[C@@H]1C [Example 4, 3′-Hydroxy-5′-[4-[2-(2-methyl-5-nitro-imidazol-1-yl)ethyl]-1-piperazinyl]benzoxazinorifamycin]	1 (≈ 0.963 µM)	< 0.004	> 8	≤ 0.03								
CO[C@H]1/C=C/O[C@@]2(C)Oc3c(C)c(O)c4c(O)c(c(/C=N/N5CCN(CCn6c([N+](=O)[O-])cnc6C)CC5)c(O)c4c3C2=O)NC(=O)/C(C)=C\C=C\[C@H](C)[C@H](O)[C@@H](C)[C@@H](O)[C@@H](C)[C@H](OC(C)=O)[C@@H]1C [Example 3, 3-[[[4-[2-(2-methyl-5-nitro-imidazol-1-yl)ethyl]-1-piperazinyl]imino]methyl]rifamycin SV]	2 (≈ 2.08 µM)	0.03 (≈ 0.0312 µM)		0.5 (≈ 0.52 µM)								
CO[C@H]1/C=C/O[C@@]2(C)Oc3c(C)c(O)c4c(c3C2=O)C2=NC3(CCN(CCn5c([N+](=O)[O-])cnc5C)CC3)NC2=C(NC(=O)/C(C)=C\C=C\[C@H](C)[C@H](O)[C@@H](C)[C@@H](O)[C@@H](C)[C@H](OC(C)=O)[C@@H]1C)C4=O [Example 1, 4-Deoxy-3,4-[2-spiro-[1-[2-(2-methyl-5-nitro-imidazol-1-yl)ethyl]-piperidin-4-yl]]-(1H)-imidazo-(2,5-dihydro)rifamycin S]	0.5 (≈ 0.53 µM)	0.03 (≈ 0.0318 µM)	16 (≈ 16.9 µM)	≤ 0.03	1 (≈ 1.06 µM)	0.03 (≈ 0.0318 µM)	0.016 (≈ 0.0169 µM)	0.00025 (≈ 0.000265 µM)				
CO[C@H]1/C=C/O[C@@]2(C)Oc3c(C)c(O)c4c(O)c(c(/C=N/N5CCN(C)CC5)c(O)c4c3C2=O)NC(=O)/C(C)=C\C=C\[C@H](C)[C@H](O)[C@@H](C)[C@@H](O)[C@@H](C)[C@H](OC(C)=O)[C@@H]1C [rifampin, reference compound]	> 32					0.06 (≈ 0.0729 µM)		0.001 (≈ 0.00122 µM)	0.24 (≈ 0.292 µM)	0.008 (≈ 0.00972 µM)	8 (≈ 9.72 µM)	0.12 (≈ 0.146 µM)
